Entries after “also recorded” stand apart in the source; their conditions may differ.
Assays:
[1] = molecular target: T1, TXNRD1 (Homo sapiens, UniProt Q16881); assay: TXNRD1 activity assay, pure enzyme (Fig. 1A); type: biochemical; conditions: recombinant TXNRD1, Fig. 1A assay conditions; read-out: IC50 TXNRD1 inhibition
T1 construct: made in house
T1 sequence (Q16881 1-499 isoform Q16881-5): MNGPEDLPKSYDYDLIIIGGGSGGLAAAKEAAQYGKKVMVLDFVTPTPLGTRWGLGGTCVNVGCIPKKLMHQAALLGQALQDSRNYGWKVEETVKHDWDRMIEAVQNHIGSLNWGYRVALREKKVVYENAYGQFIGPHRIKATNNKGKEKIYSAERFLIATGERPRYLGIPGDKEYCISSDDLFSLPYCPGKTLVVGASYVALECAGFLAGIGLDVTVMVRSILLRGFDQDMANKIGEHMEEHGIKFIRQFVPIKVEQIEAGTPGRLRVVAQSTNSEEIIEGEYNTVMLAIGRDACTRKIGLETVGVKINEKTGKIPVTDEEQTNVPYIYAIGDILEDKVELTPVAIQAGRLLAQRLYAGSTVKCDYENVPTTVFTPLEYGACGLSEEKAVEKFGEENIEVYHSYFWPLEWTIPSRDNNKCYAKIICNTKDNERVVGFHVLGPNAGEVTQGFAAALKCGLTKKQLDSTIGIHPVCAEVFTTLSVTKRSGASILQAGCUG
Procedure: (§1) Recombinant human proteins—Recombinant human selenoprotein GPX and TXNRD isoenzymes as well as recombinant human GR were cloned, expressed, and purified as described previously [[26], [27], [28]].
(§2) TXNRD1 selenite and DTNB assays were run as previously described [[26], [27], [28]]. Dose-response curves and IC50s were generated using Excel and GraphPad Prism. Briefly, initial slopes of NADPH consumption were normalized to DMSO controls and IC50s were calculated using log(inhibitor) vs. response—Variable slope (four parameters).

[2] = molecular target: T1, TXNRD1; assay: nano differential scanning fluorimetry, TXNRD1; type: binding; conditions: for Tm of TXNRD1 (nanoDSF): 100 μM compound, DMSO control 71.3 °C
Procedure: Nano differential scanning fluorimetry—Real-time monitoring of fluorescence emission at 330 nm and 350 nm (excitation wavelength: 280 nm) and backscattering absorbance of GPX4 and TXNRD1 samples in the presence of compound was performed using a NanoTemper Prometheus NT.48 instrument. […] Standard capillaries were used, and temperature was increased from 25 to 95 °C with a ramp rate of 4.0 °C/min. Three biological replicates were carried out for each condition, and their means and standard deviations are depicted.

[3] = molecular target: T2, GPX1 (Homo sapiens, UniProt P07203); assay: GPX1 activity assay, pure enzyme (NADPH consumption, cumene hydroperoxide); type: biochemical; conditions: recombinant selenoprotein, pure enzyme system
T2 construct: made in house
T2 sequence (P07203 1-203): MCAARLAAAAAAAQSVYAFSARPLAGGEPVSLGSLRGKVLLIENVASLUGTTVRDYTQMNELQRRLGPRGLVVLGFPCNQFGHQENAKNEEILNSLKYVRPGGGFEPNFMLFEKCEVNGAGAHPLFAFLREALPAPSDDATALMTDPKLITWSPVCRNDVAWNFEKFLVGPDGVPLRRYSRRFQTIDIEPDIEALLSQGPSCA
Procedure: as §1
Biochemical assays—GPX assays were run as previously described [[26], [27], [28]] in a clear medium-binding 96-well SpectraPlates (PerkinElmer). Briefly, 198 μL of 10 nM GPX1 or 200 nM GPX4 were incubated with 2 μL compounds or DMSO in TES buffer (50 mM Tris-HCl, 2 mM EDTA (pH 7.5), 150 mM NaCl) with BSA at room temperature for 30 min. Then, 40 μL of master mix (100 nM GR, 1 mM GSH, 0.5 mM NADPH in TES buffer) was added. To start the reaction, 10 μL of Cumene hydroperoxide ([0.5 mM] in 50% EtOH) was then added. Absorbance at 340 nm was measured using a Tecan Infinite® M Nano microplate reader every 20 s for 30 min. Four replicates were run, unless otherwise stated.

[4] = molecular target: T3, TXNRD1 (Homo sapiens, UniProt Q16881); assay: Cellular TXNRD1 assay with RX1 probe in A549 cells; type: cell-based; conditions: for Suppression of RX1 signal (cellular TXNRD1 activity): A549, 100 nM sodium selenite, 12 h and 24 h, seen at 0.5 μM or higher; for Effect on cellular TXNRD1 activity (RX1) at 4 h: A549, 4 h incubation, RSL3 and ML162 at 1 μM or higher
T3 construct: RX1 probe that specifically reports upon TXNRD1 enzymatic activity in live cells; endogenous in cells; host or cells: A549
T3 sequence (Q16881 151-649 limits assumed): T1 sequence (Q16881 1-499 isoform Q16881-5)
Procedure: Cellular TXNRD1 assay—20,000 or 10,000 A549 cells (for 4 h or 12 h and 24 h compound incubation respectively) were seeded in 96-well plates (microplates, 96 well, F-bottom, black, clear bottom, ViewPlateTM-96 F TC, PerkinElmer), in a total volume of 100 μL full DMEM (supplemented with 10% FBS and 100 nM Na2SeO3). […] The cells were subsequently incubated for the respective mentioned time, washed once with full DMEM and fresh, full DMEM, containing 75 μM RX1 and 0.75% DMSO, was added and the first fluorescent measurement was conducted immediately (timepoint = 0) using a Tecan Infinite M200 plate reader (ex/em 355/520). To follow the kinetic activation of RX1, a fluorescent measurement was done every hour for 6 h. Between measurements, cells were stored at 37 °C and 5% CO2. As a control, cells treated with compounds, but not with RX1, just the respective DMSO content, were used for background fluorescent. To determine how the cells were viable throughout the RX1 assay, the control cells were used for a viability measurement, using CellTiter-Glo® Luminescent Cell Viability Assay, after the final fluorescent measurement. For final data analysis, raw data was processed using Microsoft Excel and GraphPad Prism. In brief, the slope of the activated RX1 fluorescence increase was in each case calculated and normalized, using the viability measurement of the control cells.

[5] = molecular target: T1, TXNRD1; assay: TXNRD1 orthogonal assays (selenite reduction, DTNB reduction; Extended Data Fig. 2); type: biochemical; conditions: for TXNRD1 remaining activity: 5 µM compound; for Inhibition of TXNRD1 without NADPH pre-reduction: incubated with compound in the absence of NADPH, then assayed; for IC50: orthogonal assays, Extended Data Fig. 2A and 2B, read-out: curve-fit IC50 TXNRD1
Procedure: as §2
Supplementary Data Extended Data Set
(Extended Data Fig. 2A, left panel). Measuring inhibition of TXNRD1 activity, as a complement to the analyses shown in the main text of this article, we also assessed this using two orthogonal approaches: 1. by the measurement of NADPH consumption coupled to direct selenite reduction of TXNRD1, either through the decrease in absorbance at 340 nm or decrease in its fluorescence, and 2. measuring TXNRD1-catalyzed DTNB reduction based upon quantification of TNB- anions absorbing at 412 nm as formed upon TXNRD1-catalyzed reduction of the disulfide in DTNB. Using these assays, we could confirm that the RSL3 inhibition of TXNRD1 was not an artifact due to specific assay conditions, with both RSL3 and ML162 showing complete inhibition of TXNRD1 at the higher end of the concentrations assessed here (2.8 ± 0.9% and 5.8 ± 0.9% remaining activity with just 5 µM of RSL3 and […]
ML162 (Extended Data Fig. 2A, middle and right panels, and 2B). […]
any inhibition of TXNRD1 in any of the assays. […]
µM, respectively (Extended Data Fig. 2B). Like with TRi-1 and TRi-2, inhibition of both TXNRD1 and TXNRD2 by RSL3 and ML162 was essentially dependent on pre-reduction of the enzyme by NADPH in order to yield potent and complete inactivation. Both compounds […]
ML162 in the absence of NADPH and subsequently assayed for activity; however, this could also be due to carry-over of the compounds to the NADPH dependent enzyme activity assay.
Because the reduction step with NADPH reduces a selenenylsulfide at the C-terminal active […]
of the selenolate at the C-terminal active site of the NADPH-reduced enzyme. That some […]
compounds might also bind some other additional site(s) in the enzyme. That notion is further strengthened by the fact that thermostability of TXNRD1 was also affected at higher concentrations of compounds when incubated with the enzyme in the absence of NADPH (see […]
dose-response curve fit to the average of n = 3 technical replicates. […]
well (middle left panel) and 1536-well format (not shown), as well as a DTNB assay (middle […]
TXNRD2 by RSL3 (left panel), ML162 (middle left panel), TRi-1 (middle right panel), and TRi-2 (right panel) are modulated by NADPH pre-treatment; Data are presented as mean ± s.d.; Four-parameter dose-response curve fit to the average of n = 3 technical replicates (n = 2

[6] = system: A549 cells; assay: A549 viability in cellular TXNRD1 (RX1) experiments; conditions: for Effect on cell viability at 4 h: A549, 4 h, Extended Data Fig. 3A; for Cell death at later timepoints: A549, 12 h and 24 h, Extended Data Fig. 3B and C
Procedure: Cellular TXNRD1 assay—20,000 or 10,000 A549 cells (for 4 h or 12 h and 24 h compound incubation respectively) were seeded in 96-well plates (microplates, 96 well, F-bottom, black, clear bottom, ViewPlateTM-96 F TC, PerkinElmer), in a total volume of 100 μL full DMEM (supplemented with 10% FBS and 100 nM Na2SeO3). The cells were incubated for 16 h at 37 °C and 5% CO2, followed by media change and addition of indicated compounds at respective concentrations (0.1 μM–20 μM), including 0.6% DMSO. The cells were subsequently incubated for the respective mentioned time, washed once with full DMEM and fresh, full DMEM, containing 75 μM RX1 and 0.75% DMSO, was added and the first fluorescent measurement was conducted immediately (timepoint = 0) using a Tecan Infinite M200 plate reader (ex/em 355/520). To follow the kinetic activation of RX1, a fluorescent measurement was done every hour for 6 h. Between measurements, cells were stored at 37 °C and 5% CO2. As a control, cells treated with compounds, but not with RX1, just the respective DMSO content, were used for background fluorescent. To determine how the cells were viable throughout the RX1 assay, the control cells were used for a viability measurement, using CellTiter-Glo® Luminescent Cell Viability Assay, after the final fluorescent measurement. For final data analysis, raw data was processed using Microsoft Excel and GraphPad Prism. In brief, the slope of the activated RX1 fluorescence increase was in each case calculated and normalized, using the viability measurement of the control cells.
Extended Data Figure 3: A549 cytotoxicity in cellular TXNRD1 experiments following final
A) Cell viability following 4-hour incubation with
compounds; B) Viability following 12-hour incubation with compounds; C) Viability
following 24 -hour incubation with compounds. The cell viability in was in each case measured
using the Cell Quanti-BlueTM Cell Viability Assay Kit and the data are presented as mean ±
s.d. of n = 3 biological replicates, each containing n = 3 technical replicates.

SMILES	IC50 [1]	Tm of TXNRD1 (nanoDSF) [2]	Inhibition of GPX1 [3]	Suppression of RX1 signal (cellular TXNRD1 activity) [4]	Effect on cellular TXNRD1 activity (RX1) at 4 h [4]	TXNRD1 remaining activity [5]	Inhibition of TXNRD1 without NADPH pre-reduction [5]	IC50 [5]	Effect on cell viability at 4 h [6]	Cell death at later timepoints [6]	Tm shift of TXNRD1 ([2]; 31.25 μM)	Tm shift of TXNRD1 ([2]; 125 μM)	Tm shift of TXNRD1 ([2]; 500 μM)
COc1ccc(N(C(=O)CCl)C(C(=O)NCCc2ccccc2)c2cccs2)cc1Cl (centres unmarked) [ML162]	19.5 µM	73.6 °C	neither RSL3, ML162, nor ML210 inhibited either GPX isoenzyme	clear dose-dependent suppression in RX1 signal	sufficient for a suppression of the RX1 signal	5.8 ± 0.9%	some inhibition	0.515 µM	no overt effects on viability	significant cell death	–	–	–
COC(=O)c1ccc([C@@H]2c3[nH]c4ccccc4c3C[C@@H](C(=O)OC)N2C(=O)CCl)cc1 [RSL3, (1S,3R)RSL3]	7.9 µM	73.3 °C	neither RSL3, ML162, nor ML210 inhibited either GPX isoenzyme; also recorded: did not inhibit GPX1 or GR	clear dose-dependent suppression in RX1 signal	sufficient for a suppression of the RX1 signal	2.8 ± 0.9%	some inhibition	0.745 µM	no overt effects on viability	significant cell death	+0.5 °C	+2.9 °C	+4.6 °C

— article PMC10149367, “The ferroptosis inducing compounds RSL3 and ML162 are not direct inhibitors of GPX4 but of TXNRD1” (Redox Biology, 2023)
